Source: US10662205B2, “Cyclic boronic acid ester derivatives and therapeutic uses thereof” (priority 2014, dated 2020)
Like-named read-outs stand apart in the source and are kept apart here.

Legend:
KP1009 (CTX-M-15) [1] = experiment: Tigemonam potentiation (MPC@4); type: cell-based
KP1010 (SHV-12) [2] = experiment: Tigemonam potentiation (MPC@4); type: cell-based
CTX-M-14 = CTX-M-14 (Escherichia coli, UniProt Q9L5C7); experiment: Inhibition of nitrocefin cleavage by purified enzyme (Ki); type: biochemical; conditions: nitrocefin reporter substrate; 10 min preincubation; read-out: Ki CTX-M-14, NCF
Sequence of CTX-M-14 (Q9L5C7 29-291): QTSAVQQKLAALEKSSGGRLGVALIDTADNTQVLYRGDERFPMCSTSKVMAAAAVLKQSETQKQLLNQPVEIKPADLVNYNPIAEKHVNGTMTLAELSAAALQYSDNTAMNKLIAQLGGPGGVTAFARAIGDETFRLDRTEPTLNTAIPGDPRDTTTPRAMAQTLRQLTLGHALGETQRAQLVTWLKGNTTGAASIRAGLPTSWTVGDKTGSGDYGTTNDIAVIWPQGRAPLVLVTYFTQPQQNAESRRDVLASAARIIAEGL
Description: (§1) Ki values of inhibition of purified class A, C and D enzymes were determined spectrophotometrically using nitrocefin as reporter substrate. Purified enzymes were mixed with various concentrations of inhibitors in reaction buffer and incubated for 10 min at room temperature. Nitrocefin was added and substrate cleavage profiles were recorded at 490 nm every 10 sec for 10 min.

SHV-12 = SHV-12 (Klebsiella pneumoniae, UniProt P0AD64, E235K/G234S/L31Q); experiment: as above; type: biochemical
Sequence of SHV-12 (P0AD64 22-286 L31Q/G234S/E235K): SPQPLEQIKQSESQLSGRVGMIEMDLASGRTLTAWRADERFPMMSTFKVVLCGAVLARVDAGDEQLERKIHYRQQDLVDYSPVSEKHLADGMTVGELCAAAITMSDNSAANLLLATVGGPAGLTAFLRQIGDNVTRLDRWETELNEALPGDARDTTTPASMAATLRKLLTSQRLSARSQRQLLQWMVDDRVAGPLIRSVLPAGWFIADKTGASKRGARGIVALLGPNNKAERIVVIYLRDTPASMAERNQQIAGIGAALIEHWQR
Description: as §1

EC1010 (CMY-6) [3] = experiment: Tigemonam potentiation (MPC@4); type: cell-based; conditions: tigemonam 4 μg/mL; EC1010, CMY-6
KP1005 (CTX-M-14) [4] = experiment: Tigemonam potentiation (MPC@4); type: cell-based; conditions: tigemonam 4 μg/mL
ec308 (SHV-5) [5] = experiment: Tigemonam potentiation (MPC@4); type: cell-based; conditions: tigemonam 4 μg/mL
PAM1154/KPC-2 = experiment: Biapenem potentiation MPC64, efflux deficient strain; type: cell-based, Pseudomonas aeruginosa; parameters: unit not given here; conditions: efflux deficient (lacks MexAB-OprM); decrease biapenem MIC 64-fold, 32 to 0.5 μg/ml
Description: (§2) Efflux of BLIs from Pseudomonas aeruginosa by the MexAB-OprM efflux pump was also evaluated. The plasmid expressing the gene encoding KPC-2 was introduced into two strains of P. aeruginosa, PAM1032 and PAM1154 that overexpressed or lacked MexAB-OprM, respectively. Due to expression of KPC-2 both strains became resistant to biapenem. […] Potency of BLIs to potentiate biapenem in these strains was determined. […] The ratio of MPC64 values for each BLI in PAM1032/KPC-2 (efflux proficient) and PAM1154/KPC-2 (efflux deficient) was determined to generate the Efflux Index (EI).

OXA-48 = OXA-48 (Klebsiella pneumoniae, UniProt Q6XEC0); experiment: Inhibition of nitrocefin cleavage by purified enzyme (Ki); type: biochemical; conditions: nitrocefin reporter substrate; 10 min preincubation; read-out: Ki OXA-48, NCF
Sequence of OXA-48 (Q6XEC0 23-265, looked up, species assumed): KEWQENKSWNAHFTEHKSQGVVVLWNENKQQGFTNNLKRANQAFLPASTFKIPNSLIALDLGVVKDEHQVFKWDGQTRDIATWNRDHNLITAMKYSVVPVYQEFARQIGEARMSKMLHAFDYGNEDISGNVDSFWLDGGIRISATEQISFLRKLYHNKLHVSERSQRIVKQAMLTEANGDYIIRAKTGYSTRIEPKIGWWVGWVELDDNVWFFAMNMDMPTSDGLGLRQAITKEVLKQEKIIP
Description: as §1, with “min. These experiments confirmed that the described compounds are inhibitors with a broad-spectrum of activity towards various β-lactamases.” for “min.”

CMY-2 = CMY-2 (Klebsiella pneumoniae, UniProt Q48434); experiment: as above; type: biochemical; conditions: nitrocefin reporter substrate; 10 min preincubation; read-out: Ki CMY-2, NCF
Sequence of CMY-2 (Q48434 21-381, species assumed): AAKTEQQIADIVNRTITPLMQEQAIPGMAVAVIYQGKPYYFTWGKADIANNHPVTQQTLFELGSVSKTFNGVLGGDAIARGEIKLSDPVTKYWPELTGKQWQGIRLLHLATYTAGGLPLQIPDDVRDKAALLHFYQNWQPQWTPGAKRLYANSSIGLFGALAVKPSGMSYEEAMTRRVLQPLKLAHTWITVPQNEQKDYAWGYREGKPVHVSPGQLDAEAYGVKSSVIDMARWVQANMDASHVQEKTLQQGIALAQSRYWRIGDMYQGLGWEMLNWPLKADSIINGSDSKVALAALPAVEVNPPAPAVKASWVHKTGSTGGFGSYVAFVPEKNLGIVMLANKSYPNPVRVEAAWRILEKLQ
Description: as §1, with “min. These experiments confirmed that the described compounds are inhibitors with a broad-spectrum of activity towards various β-lactamases.” for “min.”

KPC-2 = KPC-2 (Klebsiella pneumoniae, UniProt Q9F663); experiment: as above; type: biochemical; conditions: nitrocefin reporter substrate; 10 min preincubation; read-out: Ki KPC-2, NCF
Sequence of KPC-2 (Q9F663 25-293, looked up, species assumed): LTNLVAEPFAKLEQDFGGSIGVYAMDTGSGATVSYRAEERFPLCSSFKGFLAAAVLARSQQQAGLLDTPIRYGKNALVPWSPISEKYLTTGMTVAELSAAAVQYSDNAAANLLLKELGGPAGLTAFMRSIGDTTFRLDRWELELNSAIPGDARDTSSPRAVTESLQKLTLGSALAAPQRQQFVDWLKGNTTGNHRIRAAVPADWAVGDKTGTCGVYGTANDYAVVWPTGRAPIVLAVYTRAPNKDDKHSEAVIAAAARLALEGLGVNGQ
Description: as §1, with “min. These experiments confirmed that the described compounds are inhibitors with a broad-spectrum of activity towards various β-lactamases.” for “min.”

ec302 (TEM-10) [6] = experiment: Aztreonam potentiation (MPC@4); type: cell-based; conditions: aztreonam 4 μg/mL
KP1009 (CTX-M-15) [7] = experiment: Aztreonam potentiation (MPC@4); type: cell-based; conditions: aztreonam 4 μg/mL
P99 = P99 (Enterobacter cloacae, UniProt P05364); experiment: biochemical; conditions: nitrocefin reporter substrate; 10 min preincubation; read-out: Ki P99, NCF
Sequence of P99 (P05364 21-381): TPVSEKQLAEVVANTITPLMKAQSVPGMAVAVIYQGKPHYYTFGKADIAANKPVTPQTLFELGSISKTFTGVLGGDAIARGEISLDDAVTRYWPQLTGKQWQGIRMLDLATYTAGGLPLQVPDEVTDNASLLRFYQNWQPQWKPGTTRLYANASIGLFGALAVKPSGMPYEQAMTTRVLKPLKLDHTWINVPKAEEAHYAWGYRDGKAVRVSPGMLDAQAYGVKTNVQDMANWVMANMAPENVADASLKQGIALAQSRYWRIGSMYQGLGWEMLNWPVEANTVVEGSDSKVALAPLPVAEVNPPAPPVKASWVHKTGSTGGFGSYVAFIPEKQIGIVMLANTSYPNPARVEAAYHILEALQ
Description: as §1

KP1004 (KPC-2) [8] = experiment: Biapenem potentiation (MPC@1); conditions: biapenem 1 μg/mL
KP1010 (SHV-12) [9] = experiment: Aztreonam potentiation (MPC@4); type: cell-based; conditions: aztreonam 4 μg/mL
ECL1002 [10] = experiment: Tigemonam potentiation (MPC@4); type: cell-based; conditions: tigemonam 4 μg/mL
EC1010 (CMY-6) [11] = experiment: Aztreonam potentiation (MPC@4); type: cell-based; conditions: aztreonam 4 μg/mL
KP1086 (OXA-48) = experiment: Biapenem potentiation (MPC@1); conditions: biapenem 1 μg/mL
ec302 (TEM-10) [12] = experiment: Tigemonam potentiation (MPC@4); type: cell-based; conditions: tigemonam 4 μg/mL
Oral pharmacokinetics = type: in vivo; conditions: rat, plasma, rats, n=3, read-out: Range of % Oral Bioavailability
Description: Several compounds were tested for their oral pharmacokinetics. Rats (n=3 per compound) were administered a single oral dose. Oral doses were administered as a bolus. Plasma (˜0.3 mL) samples were collected from each rat at designated time points up to 24 hours. Blood samples were centrifuged within 5 min of collection at 12000 g for 5 min to obtain plasma. The plasma samples were stored at −80° C. until analyzed. Data were analyzed using WinNonlin.

KP1004 (KPC-2) [13] = experiment: Aztreonam potentiation (MPC@4); type: cell-based; conditions: aztreonam 4 μg/mL
ECL1002 [14] = experiment: Aztreonam potentiation (MPC@4); type: cell-based; conditions: aztreonam 4 μg/mL
PAM1032/KPC-2 = experiment: Biapenem potentiation MPC64, efflux proficient strain; type: cell-based, Pseudomonas aeruginosa; parameters: unit not given here; conditions: efflux proficient (MexAB-OprM overexpressed); decrease biapenem MIC 64-fold, 32 to 0.5 μg/ml
Description: as §2

KP1005 (CTX-M-14) [15] = experiment: Aztreonam potentiation (MPC@4); type: cell-based; conditions: aztreonam 4 μg/mL
ec308 (SHV-5) [16] = experiment: Aztreonam potentiation (MPC@4); type: cell-based; conditions: aztreonam 4 μg/mL

SMILES | MPC@4 tigemonam potentiation (KP1009 (CTX-M-15) [1]) | MPC@4 tigemonam potentiation (KP1010 (SHV-12) [2]) | Ki (CTX-M-14) | Ki (SHV-12) | MPC@4 tigemonam potentiation (EC1010 (CMY-6) [3]) | MPC@4 tigemonam potentiation (KP1005 (CTX-M-14) [4]) | MPC@4 tigemonam potentiation (ec308 (SHV-5) [5]) | PAM1154/KPC-2 Biapenem MPC64 (PAM1154/KPC-2) | Ki (OXA-48) | Ki (KPC-2) | MPC@4 aztreonam potentiation (KP1009 (CTX-M-15) [7]) | Ki (P99) | MPC@1 biapenem potentiation (KP1004 (KPC-2) [8]) | MPC@4 aztreonam potentiation (KP1010 (SHV-12) [9]) | MPC@4 tigemonam potentiation (ECL1002 [10]) | MPC@4 aztreonam potentiation (EC1010 (CMY-6) [11]) | MPC@1 biapenem potentiation (KP1086 (OXA-48)) | MPC@4 tigemonam potentiation (ec302 (TEM-10) [12]) | MPC@4 aztreonam potentiation (KP1004 (KPC-2) [13]) | MPC@4 aztreonam potentiation (ECL1002 [14]) | other results
CSCC(=O)N[C@H]1CC=C[C@@H]2CC(=O)OB1O2 [Compound 1, 2-(METHYLTHIO)-N-((2R,6S)-8-OXO-9,10-DIOXA-1-BORABICYCLO[4.3.1]DEC-4-EN-2-YL)ACETAMIDE] | X (key: X = MPC@4 ≤ 5 μg/mL; Y = 5 μg/mL < MPC@4 ≤ 20 μg/mL; Z = MPC@4 > 20 μg/mL) | X (key: X = MPC@4 ≤ 5 μg/mL; Y = 5 μg/mL < MPC@4 ≤ 20 μg/mL; Z = MPC@4 > 20 μg/mL) | < 100 nM | < 100 nM | X (X = MPC@4 ≤ 5 μg/mL) | X (X = MPC@4 ≤ 5 μg/mL) | X (X = MPC@4 ≤ 5 μg/mL) | 5 | < 100 nM | 100 to 1000 nM | X (X = MPC@4 ≤ 5 μg/mL) | < 100 nM | X (X = MPC@1 ≤ 5 μg/mL) | X (X = MPC@4 ≤ 5 μg/mL) | X (X = MPC@4 ≤ 5 μg/mL) | X (X = MPC@4 ≤ 5 μg/mL) | Z (Z = MPC@1 > 20 μg/mL) | Y (Y = 5 μg/mL < MPC@4 ≤ 20 μg/mL) | X (X = MPC@4 ≤ 5 μg/mL) | X (X = MPC@4 ≤ 5 μg/mL) | Ki (CMY-2): < 100 nM; MPC@4 aztreonam potentiation (ec302 (TEM-10) [6]): X (X = MPC@4 ≤ 5 μg/mL); bioavailability (Oral pharmacokinetics; single oral dose 30 mg/kg): 44 to 61%; bioavailability (Oral pharmacokinetics; single oral dose 100 mg/kg): 63 to 74%; bioavailability (Oral pharmacokinetics; single oral dose 300 mg/kg): 61 to 77%; PAM1032/KPC-2 Biapenem MPC64 (PAM1032/KPC-2): 80; MPC@4 aztreonam potentiation (KP1005 (CTX-M-14) [15]): X (X = MPC@4 ≤ 5 μg/mL); MPC@4 aztreonam potentiation (ec308 (SHV-5) [16]): X (X = MPC@4 ≤ 5 μg/mL)
O=C(CSC(F)F)N[C@H]1CC=C[C@@H]2CC(=O)OB1O2 [Compound 3, 2-(DIFLUOROMETHYLTHIO)-N-((2R,6S)-8-OXO-9,10-DIOXA-1-BORABICYCLO[4.3.1]DEC-4-EN-2-YL)ACETAMIDE] | X (key: X = MPC@4 ≤ 5 μg/mL; Y = 5 μg/mL < MPC@4 ≤ 20 μg/mL; Z = MPC@4 > 20 μg/mL) | X (key: X = MPC@4 ≤ 5 μg/mL; Y = 5 μg/mL < MPC@4 ≤ 20 μg/mL; Z = MPC@4 > 20 μg/mL) | < 100 nM | < 100 nM | X (X = MPC@4 ≤ 5 μg/mL) | X (X = MPC@4 ≤ 5 μg/mL) | X (X = MPC@4 ≤ 5 μg/mL) | 5 | < 100 nM | 100 to 1000 nM | X (X = MPC@4 ≤ 5 μg/mL) | < 100 nM | X (X = MPC@1 ≤ 5 μg/mL) | X (X = MPC@4 ≤ 5 μg/mL) | X (X = MPC@4 ≤ 5 μg/mL) | X (X = MPC@4 ≤ 5 μg/mL) | Z (Z = MPC@1 > 20 μg/mL) | Y (Y = 5 μg/mL < MPC@4 ≤ 20 μg/mL) | X (X = MPC@4 ≤ 5 μg/mL) | X (X = MPC@4 ≤ 5 μg/mL) | MPC@4 aztreonam potentiation (ec302 (TEM-10) [6]): X (X = MPC@4 ≤ 5 μg/mL); bioavailability (Oral pharmacokinetics; single oral dose 30 mg/kg): 28 to 54%; PAM1032/KPC-2 Biapenem MPC64 (PAM1032/KPC-2): >80; MPC@4 aztreonam potentiation (KP1005 (CTX-M-14) [15]): X (X = MPC@4 ≤ 5 μg/mL); MPC@4 aztreonam potentiation (ec308 (SHV-5) [16]): X (X = MPC@4 ≤ 5 μg/mL)
Cn1cnnc1SCC(=O)N[C@H]1CC=C[C@@H]2CC(=O)OB1O2 [Compound 5, 2-(4-METHYL-4H-1,2,4-TRIAZOL-3-YLTHIO)-N-((2R,6S)-8-OXO-9,10-DIOXA-1-BORABICYCLO[4.3.1]DEC-4-EN-2-YL)ACETAMIDE] | X (key: X = MPC@4 ≤ 5 μg/mL; Y = 5 μg/mL < MPC@4 ≤ 20 μg/mL; Z = MPC@4 > 20 μg/mL) | X (key: X = MPC@4 ≤ 5 μg/mL; Y = 5 μg/mL < MPC@4 ≤ 20 μg/mL; Z = MPC@4 > 20 μg/mL) | < 100 nM | < 100 nM | X (X = MPC@4 ≤ 5 μg/mL) | X (X = MPC@4 ≤ 5 μg/mL) | X (X = MPC@4 ≤ 5 μg/mL) | 20 | 100 to 1000 nM | 100 to 1000 nM | X (X = MPC@4 ≤ 5 μg/mL) | < 100 nM | X (X = MPC@1 ≤ 5 μg/mL) | X (X = MPC@4 ≤ 5 μg/mL) | X (X = MPC@4 ≤ 5 μg/mL) | X (X = MPC@4 ≤ 5 μg/mL) | Z (Z = MPC@1 > 20 μg/mL) | Z (Z = MPC@4 > 20 μg/mL) | Y (Y = 5 μg/mL < MPC@4 ≤ 20 μg/mL) | X (X = MPC@4 ≤ 5 μg/mL) | Ki (CMY-2): < 100 nM; bioavailability (Oral pharmacokinetics; single oral dose 50 mg/kg): 2.5 to 3%; PAM1032/KPC-2 Biapenem MPC64 (PAM1032/KPC-2): 80; MPC@4 aztreonam potentiation (KP1005 (CTX-M-14) [15]): X (X = MPC@4 ≤ 5 μg/mL); MPC@4 aztreonam potentiation (ec308 (SHV-5) [16]): X (X = MPC@4 ≤ 5 μg/mL)
Cn1nnnc1SCC(=O)N[C@H]1CC=C[C@@H]2CC(=O)OB1O2 [Compound 4, 2-(1-METHYL-1H-TETRAZOL-5-YLTHIO)-N-((2R,6S)-8-OXO-9,10-DIOXA-1-BORABICYCLO[4.3.1]DEC-4-EN-2-YL)ACETAMIDE] | X (key: X = MPC@4 ≤ 5 μg/mL; Y = 5 μg/mL < MPC@4 ≤ 20 μg/mL; Z = MPC@4 > 20 μg/mL) | X (key: X = MPC@4 ≤ 5 μg/mL; Y = 5 μg/mL < MPC@4 ≤ 20 μg/mL; Z = MPC@4 > 20 μg/mL) | < 100 nM | < 100 nM | X (X = MPC@4 ≤ 5 μg/mL) | Y (Y = 5 μg/mL < MPC@4 ≤ 20 μg/mL) | X (X = MPC@4 ≤ 5 μg/mL) | 10 | < 100 nM | 100 to 1000 nM | X (X = MPC@4 ≤ 5 μg/mL) | < 100 nM | X (X = MPC@1 ≤ 5 μg/mL) | X (X = MPC@4 ≤ 5 μg/mL) | X (X = MPC@4 ≤ 5 μg/mL) | X (X = MPC@4 ≤ 5 μg/mL) | Z (Z = MPC@1 > 20 μg/mL) | Y (Y = 5 μg/mL < MPC@4 ≤ 20 μg/mL) | X (X = MPC@4 ≤ 5 μg/mL) | X (X = MPC@4 ≤ 5 μg/mL) | Ki (CMY-2): < 100 nM; MPC@4 aztreonam potentiation (ec302 (TEM-10) [6]): X (X = MPC@4 ≤ 5 μg/mL); bioavailability (Oral pharmacokinetics; single oral dose 50 mg/kg): 3.2 to 4.6%; PAM1032/KPC-2 Biapenem MPC64 (PAM1032/KPC-2): >80; MPC@4 aztreonam potentiation (KP1005 (CTX-M-14) [15]): X (X = MPC@4 ≤ 5 μg/mL); MPC@4 aztreonam potentiation (ec308 (SHV-5) [16]): X (X = MPC@4 ≤ 5 μg/mL)
